Positions of bridges follow the written chain, without caps; N, C: chain ends. Non-standard residues stand in square brackets, D forms with d. Residues, ends and D or L forms follow the SMILES beside them. Cit = NC(=O)NCCC[C@H](N)C(=O)O; Gly(cPr) = N[C@H](C(=O)O)C1CC1; Ahp(2) = CCCCC[C@H](N)C(=O)O; NMeNle = CCCC[C@H](NC)C(=O)O; Tle = CC(C)(C)[C@H](N)C(=O)O; NHexGly = CCCCCCNCC(=O)O; Nle = CCCC[C@H](N)C(=O)O; Orn = NCCC[C@H](N)C(=O)O
Target: T1, mouse VISTA (mVISTA) (Mus musculus, UniProt Q9D659)
T1 construct: expressed in transfected cells; host or cells: Human embryonic kidney 293T cells
T1 sequence (Q9D659 33-308): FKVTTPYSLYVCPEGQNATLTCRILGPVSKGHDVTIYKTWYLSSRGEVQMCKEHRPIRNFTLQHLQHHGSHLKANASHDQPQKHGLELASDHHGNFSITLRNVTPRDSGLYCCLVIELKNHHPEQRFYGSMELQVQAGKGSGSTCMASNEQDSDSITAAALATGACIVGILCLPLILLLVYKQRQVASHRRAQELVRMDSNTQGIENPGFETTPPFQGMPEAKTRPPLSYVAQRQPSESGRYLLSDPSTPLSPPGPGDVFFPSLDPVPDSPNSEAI
Assay: Cell-Based Binding High-Content Assay For mVISTA (HC CBA mVISTA)
Settings: read-out: HC CBA mVISTA IC50
In short: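 mVISTA-293T, 4,000 cells/well; cpd ± washout step; biotin-peptide 2 nM final, 30 min RT; SA-Alexa 647 30 min; formaldehyde/Hoechst fix; HCS imaging; 4PL IC50.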

IC50	Structure (SMILES)
34.4 nM	CCCCCCN1CC(=O)N[C@@H](Cc2ccc(O)cc2)C(=O)N[C@@H](CCCC)C(=O)N[C@@H](CC(N)=O)C(=O)N[C@@H](CCCNC(=N)N)C(=O)N(C)[C@@H](CCCC)C(=O)N[C@@H](CCCCC)C(=O)N2CCC[C@H]2C(=O)N[C@@H](C2CC2)C(=O)N[C@@H](CO)C(=O)N[C@H](C(=O)NCC(N)=O)CSCC(=O)N[C@@H](Cc2ccccc2)C(=O)N[C@@H](Cc2c[nH]c3ccccc23)C(=O)N[C@@H](CC(=O)O)C1=O [Example 1389] ({CH2CO}-FWD[NHexGly]Y[Nle]NR[NMeNle][Ahp(2)]P[Gly(cPr)]SCG-NH2; thioether N-14)
25.2 nM	CCCCCCN1CC(=O)N[C@@H](Cc2ccc(O)cc2)C(=O)N[C@@H](CCCC)C(=O)N[C@@H](CC(N)=O)C(=O)N[C@@H](CCCNC(N)=O)C(=O)N(C)[C@@H](CCCC)C(=O)N[C@@H](CCCCC)C(=O)N2CCC[C@H]2C(=O)N[C@@H](C(C)(C)C)C(=O)N[C@@H](CO)C(=O)N[C@H](C(=O)NCC(N)=O)CSCC(=O)N[C@@H](Cc2ccccc2)C(=O)N[C@@H](Cc2c[nH]c3ccccc23)C(=O)N[C@@H](CC(=O)O)C1=O [Example 1390] ({CH2CO}-FWD[NHexGly]Y[Nle]N[Cit][NMeNle][Ahp(2)]P[Tle]SCG-NH2; thioether N-14)
36.3 nM	CCCCCCN1CC(=O)N[C@@H](Cc2ccc(O)cc2)C(=O)N[C@@H](CCCC)C(=O)N[C@@H](CC(N)=O)C(=O)N[C@@H](CCCNC(=N)N)C(=O)N(C)[C@@H](CCCC)C(=O)N[C@@H](CCCCC)C(=O)N2CCC[C@H]2C(=O)N[C@@H](C(C)(C)C)C(=O)N[C@@H](CO)C(=O)N[C@H](C(=O)NCC(N)=O)CSCC(=O)N[C@@H](Cc2ccccc2)C(=O)N[C@@H](Cc2c[nH]c3ccccc23)C(=O)N[C@@H](CC(=O)O)C1=O [Example 1391] ({CH2CO}-FWD[NHexGly]Y[Nle]NR[NMeNle][Ahp(2)]P[Tle]SCG-NH2; thioether N-14)
38.3 nM	CCCCCCN1CC(=O)N[C@@H](Cc2ccc(O)cc2)C(=O)N[C@@H](CCCC)C(=O)N[C@@H](CC(=O)O)C(=O)N[C@@H](CCCNC(=N)N)C(=O)N(C)[C@@H](CCCC)C(=O)N[C@@H](CCCCC)C(=O)N2CCC[C@H]2C(=O)N[C@@H](C(C)(C)C)C(=O)N[C@@H](CC(=O)O)C(=O)N[C@H](C(=O)NCC(N)=O)CSCC(=O)N[C@@H](Cc2ccccc2)C(=O)N[C@@H](Cc2c[nH]c3ccccc23)C(=O)N[C@@H](CC(=O)O)C1=O [Example 1392] ({CH2CO}-FWD[NHexGly]Y[Nle]DR[NMeNle][Ahp(2)]P[Tle]DCG-NH2; thioether N-14)
17.2 nM	CCCCCCN1CC(=O)N[C@@H](Cc2ccc(O)cc2)C(=O)N[C@@H](CCCC)C(=O)N[C@@H](CC(=O)O)C(=O)N[C@@H](CCCN)C(=O)N(C)[C@@H](CCCC)C(=O)N[C@@H](CCCCC)C(=O)N2CCC[C@H]2C(=O)N[C@@H](C(C)(C)C)C(=O)N[C@@H](CC(=O)O)C(=O)N[C@H](C(=O)NCC(N)=O)CSCC(=O)N[C@@H](Cc2ccccc2)C(=O)N[C@@H](Cc2c[nH]c3ccccc23)C(=O)N[C@@H](CC(=O)O)C1=O [Example 1393] ({CH2CO}-FWD[NHexGly]Y[Nle]D[Orn][NMeNle][Ahp(2)]P[Tle]DCG-NH2; thioether N-14)
34.8 nM	CCCCCCN1CC(=O)N[C@@H](Cc2ccc(O)cc2)C(=O)N[C@@H](CCCC)C(=O)N[C@@H](CC(N)=O)C(=O)N[C@@H](CCCN)C(=O)N(C)[C@@H](CCCC)C(=O)N[C@@H](CCCCC)C(=O)N2CCC[C@H]2C(=O)N[C@@H](C(C)(C)C)C(=O)N[C@@H](CC(=O)O)C(=O)N[C@H](C(=O)NCC(N)=O)CSCC(=O)N[C@@H](Cc2ccccc2)C(=O)N[C@@H](Cc2c[nH]c3ccccc23)C(=O)N[C@@H](CC(=O)O)C1=O [Example 1394] ({CH2CO}-FWD[NHexGly]Y[Nle]N[Orn][NMeNle][Ahp(2)]P[Tle]DCG-NH2; thioether N-14)
48.6 nM	CCCCCCN1CC(=O)N[C@@H](Cc2ccc(O)cc2)C(=O)N[C@@H](CCCC)C(=O)N[C@@H](CC(=O)O)C(=O)N[C@@H](CCCNC(=N)N)C(=O)N(C)[C@@H](CCCC)C(=O)N[C@@H](CCCCC)C(=O)N2CCC[C@H]2C(=O)N[C@@H](C(C)(C)C)C(=O)N[C@@H](CO)C(=O)N[C@H](C(=O)NCC(N)=O)CSCC(=O)N[C@@H](Cc2ccccc2)C(=O)N[C@@H](Cc2c[nH]c3ccccc23)C(=O)N[C@@H](CC(=O)O)C1=O [Example 1395] ({CH2CO}-FWD[NHexGly]Y[Nle]DR[NMeNle][Ahp(2)]P[Tle]SCG-NH2; thioether N-14)
26.8 nM	CCCCCCN1CC(=O)N[C@@H](Cc2ccc(O)cc2)C(=O)N[C@@H](CCCC)C(=O)N[C@@H](CC(N)=O)C(=O)N[C@@H](CCCNC(=N)N)C(=O)N(C)[C@@H](CCCC)C(=O)N[C@@H](CCCCC)C(=O)N2CCC[C@H]2C(=O)N[C@@H](C(C)(C)C)C(=O)N[C@@H](CC(=O)O)C(=O)N[C@H](C(=O)NCC(N)=O)CSCC(=O)N[C@@H](Cc2ccccc2)C(=O)N[C@@H](Cc2c[nH]c3ccccc23)C(=O)N[C@@H](CC(=O)O)C1=O [Example 1396] ({CH2CO}-FWD[NHexGly]Y[Nle]NR[NMeNle][Ahp(2)]P[Tle]DCG-NH2; thioether N-14)
36 nM	CCCCCCN1CC(=O)N[C@@H](Cc2ccc(O)cc2)C(=O)N[C@@H](CCCC)C(=O)N[C@@H](CC(=O)O)C(=O)N[C@@H](CCCN)C(=O)N(C)[C@@H](CCCC)C(=O)N[C@@H](CCCCC)C(=O)N2CCC[C@H]2C(=O)N[C@@H](C(C)(C)C)C(=O)N[C@@H](CC(=O)O)C(=O)N[C@H](C(=O)N[C@@H](CC(N)=O)C(=O)O)CSCC(=O)N[C@@H](Cc2ccccc2)C(=O)N[C@@H](Cc2c[nH]c3ccccc23)C(=O)N[C@@H](CC(=O)O)C1=O [Example 1397] ({CH2CO}-FWD[NHexGly]Y[Nle]D[Orn][NMeNle][Ahp(2)]P[Tle]DCN-OH; thioether N-14)
43.9 nM	CCCCCCN1CC(=O)N[C@@H](Cc2ccc(O)cc2)C(=O)N[C@@H](CCCC)C(=O)N[C@@H](CC(N)=O)C(=O)N[C@@H](CCCNC(=N)N)C(=O)N(C)[C@@H](CCCC)C(=O)N[C@@H](CCCCC)C(=O)N2CCC[C@H]2C(=O)N[C@@H](C(C)(C)C)C(=O)N[C@@H](CC(=O)O)C(=O)N[C@H](C(=O)N[C@@H](CC(N)=O)C(=O)O)CSCC(=O)N[C@@H](Cc2ccccc2)C(=O)N[C@@H](Cc2c[nH]c3ccccc23)C(=O)N[C@@H](CC(=O)O)C1=O [Example 1398] ({CH2CO}-FWD[NHexGly]Y[Nle]NR[NMeNle][Ahp(2)]P[Tle]DCN-OH; thioether N-14)
27.3 nM	CCCCCCN1CC(=O)N[C@@H](Cc2ccc(O)cc2)C(=O)N[C@@H](CCCC)C(=O)N[C@@H](CC(=O)O)C(=O)N[C@@H](CCCNC(=N)N)C(=O)N(C)[C@@H](CCCC)C(=O)N[C@@H](CCCCC)C(=O)N2CCC[C@H]2C(=O)N[C@@H](C(C)(C)C)C(=O)N[C@@H](CO)C(=O)N[C@H](C(=O)N[C@@H](CC(N)=O)C(=O)O)CSCC(=O)N[C@@H](Cc2ccccc2)C(=O)N[C@@H](Cc2c[nH]c3ccccc23)C(=O)N[C@@H](CC(=O)O)C1=O [Example 1399] ({CH2CO}-FWD[NHexGly]Y[Nle]DR[NMeNle][Ahp(2)]P[Tle]SCN-OH; thioether N-14)

Reference: patent US20240218022A1, “ANTI-VISTA MACROCYCLIC PEPTIDES AND COMPOSITIONS” (BRISTOL-MYERS SQUIBB COMPANY, priority 2022, published 2024)
